Data taken from US10471063B2, “Drug combination of PDE3/PDE4 inhibitor and muscarinic receptor antagonist” (VERONA PHARMA PLC, priority 2013, dated 2019).
Where two headings read alike, the source gives them in different places. Marks after values point to notes of the source that are not given here. Each block holds one compound with its values, some of them ahead of it.

What was measured:
[1] = system: human isolated bronchi; assay: Duration of action on EFS (3, 10, 25 Hz)-contracted human isolated bronchi, RPL554 and glycopyrronium at EC30; format: cell-based; details: administered alone
Description: Bronchial rings from 6 patients were incubated in Krebs-Henseleit solution (37° C.) aerated with O2/CO2 (95/5%) under 0.5-1.0 g tension. The duration of action (30% maximal relaxation, EC30) of RPL554 and glycopyrronium, alone or in combination, was studied in tissue contracted with 3, 10 or 25 Hz electrical field stimulation (EFS). Bronchial tone was expressed as % of maximal response to papaverine (Emax) and the area under the curve (AUC) of the contractile response was assessed. Drug mixture effects were analyzed by Bliss Independence theory. Values (n=3) are mean±SEM.

[2] = system: human isolated bronchioles (small bronchi <1 mm diameter); assay: Relaxation of small human bronchi in precision cut lung slices contracted with carbachol (EC70); format: cell-based; details: for IC50: Homo sapiens, relaxation of bronchioles, CCh EC70, mean±SEM, n=3, read-out: pD2 (negative logarithm of IC50) (converted)
Description: Precision cut lung slices (PCLSs) from 6 patients were incubated in Krebs-Henseleit solution (37° C.) aerated with O2/CO2 (95:5%). The concentration response to RPL554 and glycopyrronium, administered alone and in combination at isoeffective concentrations, was assessed at sub-maximal contraction (70% maximum, EC70) induced by carbachol (CCh). […] Drug mixture effects were analyzed by Bliss Independence theory. Values (n=3) are mean±SEM.

[3] = system: airways obstruction induced by bombesin in guinea pigs; assay: Reversal of bombesin-induced airways obstruction (total lung resistance); format: in vivo
Description: (§1) Guinea pigs were anaesthetised and ventilated. Airway obstruction was induced by the intravenous administration of bombesin (2 μg/ml; 5 ml/hr). Bronchodilation was induced by the iv. administration of RPL554 alone at various doses, or in combination with sub maximal doses of atropine (2 μg/kg). […] Total lung resistance (RL) and mean arterial blood pressure were measured. Data are expressed as % reduction in airways obstruction or blood pressure.

[4] = system: human isolated bronchial rings; assay: Relaxation of human isolated bronchial rings pre-contracted with acetylcholine (EC70); synergy analysis (Bliss Independence, Berenbaum); format: cell-based
Description: In the laboratory, airways were dissected from connective and alveolar tissues. Then, segmental bronchi were isolated and stored overnight in KH buffer solution at refrigeration temperature. […] Bronchial rings were mounted on hooks in the organ baths where one hook was attached with threaded to a stationary rod and the other hook tied with thread to an isometric force displacement transducer. […] Then, concentration response curves were constructed to test individual compound RPL554 and muscarinic receptor antagonist alone; as well as RPL554 administered in combination with a muscarinic receptor antagonist in order to produce isobolar graphs as described elsewhere (Greco et al., 1995; Tallarida, 2001; Goldoni and Johansson, 2007; Boik et al., 2008; Lee, 2010). […] Goodman et al., 2008). E/Emax was expressed as percentage of Emax elicited by the contractile agents; […] The analysis of the potential synergism between RPL554 plus muscarinic receptor antagonist was measured by applying the Berenbaum method, the Bliss Independence (BI) criterion and the Loewe Additivity (LA) model through curved isoboles (Berenbaum, 1977; Greco et al., 1995; Grabovsky and Tallarida, 2004; Tallarida, 2006; Goldoni and Johansson, 2007; Tallarida and Raffa, 2010). […] Lee, 2010). The BI theory for two agents is expressed by the following equation: E(x,y)=Ex+Ey-(Ex*Ey), where E is the fractional effect, and x and y are the concentrations of two compounds in a combination experiment. If the combination effect is higher than the expected value from the above equation, the interaction is considered synergistic, while if this effect is lower, the interaction is antagonistic. […] In this study, the BI equation was characterized by X=RPL554 and Y=muscarinic receptor antagonist. […] The additive response (Eab) for each dose combination with respect to B was then calculated by insertion of B into EB=f(B). The difference between the observed relaxation response to the combination doses and the additive response was calculated and analysed using a one sample t-test and for multiple comparisons, the probability was adjusted for multiple comparisons using a Bonferroni correction. For illustrative purposes, the 1:1 dose combinations were analysed for synergy. […] Tallarida, 2001; Goldoni and Johansson, 2007; Boik et al., 2008; Lee, 2010).

[5] = Mean arterial blood pressure in bombesin-treated anaesthetised guinea pigs; format: in vivo; details: RPL554 20 μg/kg iv (combination: + 2 μg/kg atropine)
Description: as §1

[6] = system: passively sensitized human isolated bronchi; assay: Contraction induced by histamine in passively sensitized human bronchi pre-incubated with RPL554; format: cell-based
Description: Human isolated bronchial rings were rotated overnight at room temperature in tubes containing KH buffer solution in the absence (non-sensitized control rings) or the presence of 10% vol^−1 sensitizing serum (sensitized rings) as described elsewhere (Watson et al., 1997; Rabe, 1998). Subjects suffering from atopic asthma (total IgE>250 U ml^−1 specific against common aeroallergens) during exacerbation provided signed consent for serum donation. Sera was prepared by centrifugation of whole blood and sera samples were frozen at −80° C. in […] until required.
The next morning, after removal of adhering alveolar and connective tissues, bronchial rings were transferred into an organ bath containing KH buffer (37° C.) and continuously gassed with a 95% O2/5% CO2. Tissues were pre-incubated for 30 min with RPL554 (1, 10 and 100 μM) and then followed (without washing) by the construction of concentration responses curve to histamine (10 nM-1 mM) in the presence of RPL554.
Appropriate curve-fitting to a sigmoidal model was used to calculate the effect (E), the Emax and the concentration required to cause a 50% maximal effect (EC50). The equation used was log [agonist] vs. response, Variable slope, expressed as Y=Bottom+(Top−Bottom)/{1+10^[(Log EC50−X)*HillSlope]} (Motulsky and Christopoulos, 2004; Goodman et al., 2008). E/Emax was expressed as percentage of Emax elicited by the contractile agents; EC50 values were converted to pD2 for statistical analysis (Goodman et al., 2008) and the relaxant responses were expressed as a percentage of papaverine (500 μM) induced relaxation.

[7] = system: human isolated bronchial preparations; assay: Inhibition of EFS (10 Hz)-induced contraction of human isolated bronchial rings; format: cell-based
Description: Regions of macroscopically normal lungs were taken from uninvolved areas resected from 24 subjects (11 male and 13 female, 60.1±1.6 years old) undergoing lobectomy surgery for lung cancer, but without a history of chronic airway disease.
Airways were immediately placed into oxygenated Krebs-Henseleit buffer solution (KH) (mM: NaCl 119.0, KCl 5.4, CaCl2 2.5, KH2PO4 1.2, MgSO4 1.2, NaHCO3 25.0, glucose 11.7; pH 7.4) containing the cyclooxygenase (COX) inhibitor indomethacin (5.0 μM), and transported at 4° C. from the “Regina Elena National Cancer Institute” or the “Sant' Andrea Hospital” to the Respiratory Research Laboratory in the Surgery and Medicine Faculty of “Tor Vergata University”, Rome, Italy. None of the subjects were chronically treated with theophylline, β2-agonists or glucocorticosteroids. Serum IgE levels determined on the day of surgery were in the normal range. Preoperative lung function parameters were generally normal and there were no signs of respiratory infections.
In the laboratory, airways were dissected from connective and alveolar tissues. Then, segmental bronchi were isolated and stored overnight in KH buffer solution at refrigeration temperature. […]
Human bronchi were placed in organ baths containing KH buffer solution (37° C.) medicated with indomethacin (5.0 μM), bubbled with 95% O2/5% CO2 and suspended under passive tension (0.5-1.0 g). […] Changes in isometric tension were measured with a transducer (Fort 10 WPI, Basile, Instruments, Italy) and the tissue responsiveness was assessed by acetylcholine (100 μM); when the response reached a plateau, rings were washed three times and allowed to equilibrate for 45 min. […]
Bronchial contractile tension induced by EFS was measured as a percentage of control bronchi, and polynomial curves were constructed by fitting models of biological data using nonlinear regression as described elsewhere (Motulsky and Christopoulos, 2004). […]

- IC50 [2]: 0.000631 µM
Compound: C[N+]1(C)CCC(OC(=O)C(O)(c2ccccc2)C2CCCC2)C1 (centres unmarked) [glycopyrronium, reference compound]
- Time for which the effect was detectable [1]: 4 h
- Time of maximal relaxation [1]: 50 ± 10 min
- Effect on CCh-induced contraction [2]: abolished

- EC50 ([4]; relaxation of acetylcholine pre-contracted bronchi, n=5, read-out: EC50 (geomean, 95% CI)): 21.2 µM
- IC50 [2]: 1 µM
Compound: COc1cc2c(cc1OC)-c1cc(=Nc3c(C)cc(C)cc3C)n(CCNC(N)=O)c(=O)n1CC2 [RPL554, 9,10-Dimethoxy-2-(2,4,6-trimethylphenylimino)-3-(N-carbamoyl-2-aminoethyl)-3,4,6,7-tetrahydro-2H-pyrimido[6,1-a]isoquinolin-4-one]
- % Reduction in airways obstruction ([3]; RPL554 10 μg/kg iv (combination: + atropine 2 μg/kg)): 7.4 + 1.9%
- % Reduction in airways obstruction ([3]; RPL554 20 μg/kg iv (combination: + atropine 2 μg/kg)): 24.6 + 4.3%
- % Reduction in airways obstruction ([3]; RPL554 40 μg/kg iv (combination: + atropine 2 μg/kg)): 55.2 + 6.2%
- % Reduction in airways obstruction ([3]; RPL554 80 μg/kg iv (combination: + atropine 2 μg/kg)): 65.1 + 5.3%
- Emax ([4]; acetylcholine EC70 pre-contraction, percentage of papaverine (500 μM) relaxation, mean±SD, n=5, read-out: Emax (relaxation)): 100%
- Time for which the effect was detectable [1]: 4 h
- Time of maximal relaxation [1]: 160 ± 20 min
- reduction in mean arterial blood pressure [5]: 37.3+6.7%
- Emax at 1 µM ([6]; Homo sapiens, RPL554 1 uM, mean ± SEM, n=5): 70.3 ± 2.7%
- Emax at 10 µM ([6]; Homo sapiens, RPL554 10 uM, mean ± SEM, n=5): 58.1%
- pD2 of histamine ([6]; RPL554 1 uM): 4.97 ± 0.07***
- pD2 of histamine ([6]; RPL554 10 uM): 4.98
- Effect on contraction induced by histamine ([6]; RPL554 100 μM): completely abolished
- Emax at 100 µM ([7]; Homo sapiens, RPL554 100 μM, 10 Hz EFS, read-out: Emax, inhibition of contractile response induced by EFS): 91.3 ± 3.37%
- T1/2 (offset, time to evoke half of maximal relaxation) ([7]; RPL554 100 μM, 10 Hz EFS): 23.7 ± 12.3 min
- Duration of inhibition of EFS contractile response after exposure ([7]; after termination of drug exposure): at least 5 h
- Effect on CCh-induced contraction [2]: abolished

Compound: CN1[C@@H]2CC[C@H]1C[C@@H](OC(=O)C(CO)c1ccccc1)C2 (some centres unmarked) [atropine, reference compound]
- reduction in airways obstruction ([3]; atropine 2 μg/kg alone): 22.3 ± 4.9%
- EC50 ([4]; read-out: EC50 (geomean, 95% CI)): 1.18 µM
- Emax ([4]; read-out: Emax (relaxation)): 66 ± 14%
